Experiments:
[1] = target: T1, CbTubZ316 (Clostridium phage c-st, UniProt Q331T7); settings: nucleotide-binding pocket; crystals at pH 5.5, 22 °C
T1 construct: gene tubZ

[2] = target: T2, BtTubZ (Bacillus thuringiensis, UniProt Q8KNP3); assay: HPLC of polymer-bound nucleotide; type: biochemical
T2 construct: gene tubZ; construct not described in main text; filaments
T2 sequence (Q8KNP3 whole entry): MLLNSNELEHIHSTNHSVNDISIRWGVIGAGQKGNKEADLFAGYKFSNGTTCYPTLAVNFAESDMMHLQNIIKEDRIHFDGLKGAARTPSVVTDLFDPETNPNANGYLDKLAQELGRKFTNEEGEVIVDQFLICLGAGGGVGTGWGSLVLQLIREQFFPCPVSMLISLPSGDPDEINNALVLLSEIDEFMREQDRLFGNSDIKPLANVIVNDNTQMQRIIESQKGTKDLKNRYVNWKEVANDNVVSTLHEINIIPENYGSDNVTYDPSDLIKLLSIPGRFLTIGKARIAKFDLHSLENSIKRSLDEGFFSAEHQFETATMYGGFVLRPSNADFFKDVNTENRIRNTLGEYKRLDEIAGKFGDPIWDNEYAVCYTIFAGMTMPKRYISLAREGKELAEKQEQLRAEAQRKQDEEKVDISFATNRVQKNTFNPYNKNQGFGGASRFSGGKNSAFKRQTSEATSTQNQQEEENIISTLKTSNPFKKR

T1 sequence (Q331T7 1-316 limits assumed): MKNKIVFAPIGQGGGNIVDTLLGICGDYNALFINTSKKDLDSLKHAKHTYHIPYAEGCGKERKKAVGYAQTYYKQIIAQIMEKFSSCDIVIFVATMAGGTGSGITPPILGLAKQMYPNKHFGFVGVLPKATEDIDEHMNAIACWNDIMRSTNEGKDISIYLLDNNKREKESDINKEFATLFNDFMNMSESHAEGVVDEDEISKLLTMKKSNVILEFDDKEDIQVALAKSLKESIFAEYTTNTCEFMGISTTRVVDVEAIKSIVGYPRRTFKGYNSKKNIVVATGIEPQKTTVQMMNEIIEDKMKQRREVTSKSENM

Compound: Nc1nc2c(ncn2[C@@H]2O[C@H](COP(=O)(O)OP(=O)(O)O)[C@@H](O)[C@H]2O)c(=O)[nH]1 [GDP]
- X-ray crystal structure, 2.4 Å [1]: TubZ316 displays GDP at the nucleotide-binding pocket

Compound: Nc1nc2c(ncn2[C@@H]2O[C@H](COP(=O)(O)OP(=O)(O)OP(O)(O)=S)[C@@H](O)[C@H]2O)c(=O)[nH]1 [GTP-γ-S]
- HPLC of polymer-bound nucleotide ([2]; filaments assembled with GTP-γ-S): nucleotide content of BtTubZ filaments assembled with GTP- γ-S and GTP

Compound: Nc1nc2c(ncn2[C@@H]2O[C@H](COP(=O)(O)OP(=O)(O)OP(=O)(O)O)[C@@H](O)[C@H]2O)c(=O)[nH]1 [GTP]
- HPLC of polymer-bound nucleotide ([2]; filaments assembled with GTP): nucleotide content of BtTubZ filaments assembled with GTP- γ-S and GTP

— publication PMC5322520, “TubZ filament assembly dynamics requires the flexible C-terminal tail” (Scientific Reports, 2017)
